Read-outs that look alike come from different tables or passages of the source.

The test system of one experiment is D-2 receptor. Kind of experiment: 7 OHDPAT-3H specific binding to membranes of CHO cells expressing the D-2 receptor. Details: species or system rat. As to conditions: increasing concentrations of radioligand.
For experiment [1], the target named is T1, D-2 receptor expressed in CHO cells (Rattus norvegicus, UniProt P61169).
T1 construct: expressed in transfected cells
Kind of experiment: Inhibition of 125I-iodosulpride binding to membranes of transfected CHO cells (D-2). As to conditions: for Kd: saturation kinetics at equilibrium, permanently transfected CHO cells. The text has this: (§1) As far as the measurement of the affinity of the agonists or antagonists towards the polypeptides of the invention is concerned, it may be made under the following conditions:
(§2) The terms agonists and antagonists refer to the actions of the medicines on the D-2 receptors.
(§3) The β2 adrenergic receptor is excised from pSV β2 -MDH by digestions with HindIII and EcoRI and replaced by a SmaI-EcoRI restriction fragment of the clone of the D-2A receptor by using a blunt-ended HindIII nucleotide adaptor leading to the plasmid pSV D-2. The vector needed to express the D-3 receptor is obtained by replacing the HindIII-BglII restriction fragment of pSV D-2 by a EcoRI-BglII restriction fragment of the clone RT-PCR B, by using a HindIII-EcoRI oligonucleotide adaptor leading to the plasmid pSV D-3. […] The stable transfectants are selected in a culture medium (Dulbecco's Modified Eagle medium) not containing hypoxanthine and thymidine.

For experiment [2], the target named is T2, D-3 receptor expressed in CHO cells (Rattus norvegicus, UniProt P19020).
T2 construct: expressed in transfected cells
T2 sequence (P19020 whole entry): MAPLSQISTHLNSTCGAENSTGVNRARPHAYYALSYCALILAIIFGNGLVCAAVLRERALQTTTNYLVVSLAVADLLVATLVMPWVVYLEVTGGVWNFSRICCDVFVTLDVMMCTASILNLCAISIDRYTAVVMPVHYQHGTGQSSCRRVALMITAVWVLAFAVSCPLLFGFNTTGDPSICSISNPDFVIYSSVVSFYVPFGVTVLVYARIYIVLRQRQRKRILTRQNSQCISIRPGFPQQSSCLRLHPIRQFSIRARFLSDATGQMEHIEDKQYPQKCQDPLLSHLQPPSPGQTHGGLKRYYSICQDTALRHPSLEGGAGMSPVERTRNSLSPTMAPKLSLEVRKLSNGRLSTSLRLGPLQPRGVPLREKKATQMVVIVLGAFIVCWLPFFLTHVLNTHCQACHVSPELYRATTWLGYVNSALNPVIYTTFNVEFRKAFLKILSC
Kind of experiment: Inhibition of 125I-iodosulpride binding to membranes of transfected CHO cells (D-3). As to conditions: for Ratio Ki D-2/Ki D-3: D-2 and D-3 receptors expressed in CHO cells.
Source text: as §1, §2, §3

Where [3] appears, read: competition with 125I-iodosulpride, CHO cell membranes, mean ± standard deviation, 2-3 experiments, read-out: Ki Value D-3 receptor.
Setting [4] is: competition with 125I-iodosulpride, CHO cell membranes, mean ± standard deviation, 2-3 experiments, read-out: Ki Value D-2 receptor.

T1 sequence (P61169 whole entry): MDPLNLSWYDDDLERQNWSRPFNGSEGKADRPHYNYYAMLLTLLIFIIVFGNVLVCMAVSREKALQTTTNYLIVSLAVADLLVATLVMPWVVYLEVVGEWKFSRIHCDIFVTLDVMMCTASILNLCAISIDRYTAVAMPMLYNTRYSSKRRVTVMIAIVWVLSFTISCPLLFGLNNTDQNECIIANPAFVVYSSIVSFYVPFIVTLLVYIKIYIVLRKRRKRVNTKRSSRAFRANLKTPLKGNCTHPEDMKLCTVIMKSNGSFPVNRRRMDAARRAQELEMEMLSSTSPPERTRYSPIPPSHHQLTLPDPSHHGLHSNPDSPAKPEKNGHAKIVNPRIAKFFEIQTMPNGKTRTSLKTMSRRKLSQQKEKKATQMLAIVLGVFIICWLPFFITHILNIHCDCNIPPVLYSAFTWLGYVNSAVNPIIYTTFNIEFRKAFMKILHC

Turning to `CCCN(CCC)C1CCc2ccc(O)cc2C1` (stereo not drawn) [7 OHDPAT-^3 H, 7-hydroxy N,N'-dipropylaminotetraline radiolabelled with tritium], the “Binding to membranes of cells expressing the D-2 receptor” value in the experiment with D-2 receptor is on record as “only very slightly”.
As usually defined, the Ki is a dissociation constant, usually derived from enzyme kinetics or from competition with a known ligand. For `CCCN[C@@H]1CCc2c(OC)cccc2[C@@H]1C` [(+)AJ 76], the results for the inhibitory constant (Ki) in experiment [1] and in experiment [2] (setting [3]) were 270 ± 14 nM and 91 ± 5 nM, respectively. In addition, the “Comparison of affinities for D-2 and D-3 receptors (in words)” value (from here on “Comparison of affinities”) in experiment [2] is “somewhat but significantly higher affinities for the D-3 receptor than the D-2 receptor”. Besides, in experiment [2], the “Ratio Ki D-2/Ki D-3” value amounted to 3.0.
In turn, `CCCN(CCC)[C@@H]1CCc2c(OC)cccc2[C@@H]1C` [(+)UH 232] gave a Ki in experiment [1] of 40 ± 1 nM. In addition, in experiment [2], the “Comparison of affinities” value was “somewhat but significantly higher affinities for the D-3 receptor than the D-2 receptor”; the Ki came to 9.2 ± 0.1 nM; the “Ratio Ki D-2/Ki D-3” value is 4.4.
For the compound `CN1CCc2cccc3c2[C@H]1Cc1ccc(O)c(O)c1-3` [Apomorphine], the Ki in experiment [2] (read-out: Ki Value D-3 receptor) was 20 ± 3 nM.
Take `CC(C)C[C@H]1C(=O)N2CCC[C@H]2[C@]2(O)O[C@](NC(=O)[C@@H]3C=C4c5cccc6[nH]c(Br)c(c56)C[C@H]4N(C)C3)(C(C)C)C(=O)N12` [Bromocriptine]: the Ki in experiment [1] (setting [4]) stood at 5.3 ± 0.6 nM; in experiment [2] (setting [3]) it was 7.4 ± 1.3 nM. The “Ratio Ki D-2/Ki D-3” value in experiment [2] stood at 0.7.
On to `NCCc1ccc(O)c(O)c1` [Dopamine], for which, in experiment [1] (presence of Gpp(NH)p), the “Effect of Gpp(NH)p on displacement curve, D-2 receptor” value is “shifted to the right”.
On to `CCCN1C[C@H](CSC)C[C@@H]2c3cccc4[nH]cc(c34)C[C@H]21` [Pergolide], for which the “Comparison of affinities” value in experiment [2] is “much less affinity for the D-3 receptor than for the D-2 receptor”.
On to `CCN1CCC[C@H]1CNC(=O)c1c(O)c(Cl)cc(Cl)c1OC` [Raclopride], for which the Ki in experiment [2] (setting [3]) was 3.5 ± 0.3 nM.
The compound `Oc1cc2c(cc1O)C(c1ccccc1)CNCC2` (stereo not drawn) [SKF 38393] displayed a Ki in experiment [2] of 5000 nM.
For `CN(C)C1CCc2cc(O)c(O)cc2C1` (stereo not drawn) [TL 99], the “Comparison of affinities” value in experiment [2] was “much less affinity for the D-3 receptor than for the D-2 receptor”.
`CN1CCN(CCCN2c3ccccc3Sc3ccc(S(=O)(=O)N(C)C)cc32)CC1` [Thioproperazine]: the Ki worked out at 0.21 ± 0.01 nM in experiment [1] (setting [4]) and 1.7 ± 0.1 nM in experiment [2] (setting [3]).
What is called Kd is a measure of binding affinity in units of concentration. High values mean lower affinity, low ones higher affinity. As for Iodosulpride, the Kd was 0.61 ± 0.05 nM in experiment [1]; 0.6 nM in experiment [1] (listed as 125 I-iodosulpride); 1.2 ± 0.2 nM in experiment [2] (saturation kinetics at equilibrium, permanently transfected CHO cells). In experiment [2], the “Ratio Ki D-2/Ki D-3” value amounted to 0.52.

(Values after patent US5407823A, “Polypeptides having a dopaminergic receptor activity, nucleic acids coding for these polypeptides and use of these polypeptides for the screening of substances active on these polypeptides” (priority 1990, dated 1995).)
